# Measured values from patent publication US5109111A, “CRF antagonists” (The Salk Institute for Biological Studies, priority 1990, dated 1992).
# Square brackets hold non-standard residues; d marks the D form. Peptide text beside a SMILES is read from it. Nle = CCCC[C@H](N)C(=O)O; Orn = NCCC[C@H](N)C(=O)O
# What was measured:
# [1] = system: GRF-stimulated secretion of GH; assay: Specificity: GRF-stimulated secretion of GH; format: cell-based
# Description: (§1) Compared to AHC(9-41), a potent CRF antagonist disclosed in U.S. Pat. No. 4,605,642, this peptide was more than 17 times as potent.
# ACTH release = assay: In vivo duration of lowering ACTH release after iv injection, against the Standard; set-up: species or system rats
# [2] = system: TRF-stimulated secretion of TSH and prolactin; assay: Specificity: TRF-stimulated secretion of TSH and prolactin; format: cell-based
# Description: as §1
# [3] = system: GnRH-stimulated secretion of LH and FSH; assay: Specificity: GnRH-stimulated secretion of LH and FSH; format: cell-based
# Description: as §1
# [4] = system: secretion of ACTH and β-endorphin-like (β-END-LI) immunoactivities; assay: hCRF stimulation of ACTH and β-END-LI secretion in vivo in rats
# Experimental: Plasma levels of ACTH and β-END-LI are elevated for at least 5-20 minutes following the intraveneous administration of hCRF to nembutal-anesthesized male rats and to quiescent male or female rats with indwelling intravenous cannulae. […] These antagonists should counteract such effects.
# [5] = system: secretion of ACTH stimulated by oCRF in cultured rat pituitary cells; assay: Blocking of oCRF-stimulated ACTH and β-endorphin secretion by cultured rat pituitary cells; format: cell-based; details: result in words
# Experimental: The effectiveness of synthetic CRF antagonists to block the secretion of ACTH and β-endorphin by cultured rat pituitary cells is measured using the procedure as generally set forth in Vale et al., Endocrinology, 91, 562 (1972).
molecule,measurement,setting,value
AHC(9-41),effect on GRF-stimulated secretion of GH,[1],no effect
same,duration of bioactivity (lowering ACTH release),"ACTH release; dosages of 0.5 mg, two runs",about 40 minutes
same,duration of effectiveness in lowering ACTH release,ACTH release; dose of 0.1 mg,no measurable effect
same,effect on TRF-stimulated secretion of TSH and prolactin,[2],no effect
same,effect on GnRH-stimulated secretion of LH and FSH,[3],no effect
CC[C@H](C)[C@H](NC(=O)[C@@H](NC(=O)[C@H](CCC(=O)O)NC(=O)[C@H](CCSC)NC(=O)[C@H](CC(C)C)NC(=O)[C@H](CCCCN)NC(=O)[C@H](CCCNC(=N)N)NC(=O)[C@H](CC(N)=O)NC(=O)[C@H](CO)NC(=O)[C@H](Cc1c[nH]cn1)NC(=O)[C@H](C)NC(=O)[C@H](CCC(N)=O)NC(=O)[C@H](CCC(N)=O)NC(=O)[C@H](C)NC(=O)[C@H](CC(C)C)NC(=O)[C@H](CCC(N)=O)NC(=O)[C@H](CCC(=O)O)NC(=O)[C@H](C)NC(=O)[C@H](CCCNC(=N)N)NC(=O)[C@H](C)NC(=O)[C@H](CCSC)NC(=O)[C@H](CCC(=O)O)NC(=O)[C@H](CC(C)C)NC(=O)[C@@H](NC(=O)[C@H](CCC(=O)O)NC(=O)[C@H](CCCNC(=N)N)NC(=O)[C@H](CC(C)C)NC(=O)[C@H](CC(C)C)NC(=O)[C@H](Cc1c[nH]cn1)NC(=O)[C@H](Cc1ccccc1)NC(=O)[C@@H](NC(=O)[C@H](CC(C)C)NC(=O)[C@H](CC(=O)O)NC(=O)[C@H](CC(C)C)NC(=O)[C@H](CO)NC(=O)[C@@H](NC(=O)[C@@H]1CCCN1C(=O)[C@@H]1CCCN1C(=O)[C@H](CCC(=O)O)NC(=O)[C@H](CCC(=O)O)NC(=O)[C@@H](N)CO)[C@@H](C)CC)[C@@H](C)O)C(C)C)[C@@H](C)CC)C(N)=O [hCRF],time plasma levels of ACTH and β-END-LI are elevated,"[4]; intravenous hCRF, nembutal-anesthetized male rats and quiescent cannulated male or female rats",5 to 20 min
same,stimulation of secretion of ACTH and β-END-LI in vivo,[4]; several rat preparations,powerful stimulator
"CCCC[C@H](NC(=O)[C@H](CCC(=O)O)NC(=O)[C@H](CC(C)C)NC(=O)[C@@H](NC(=O)[C@H](CCC(=O)O)NC(=O)[C@H](CCCNC(=N)N)NC(=O)[C@H](CC(C)C)NC(=O)[C@H](CC(C)C)NC(=O)[C@H](Cc1c[nH]cn1)NC(=O)[C@H](Cc1ccccc1)NC(=O)[C@@H](NC(=O)[C@@H](N)CC(C)C)[C@@H](C)O)C(C)C)C(=O)N[C@@H](C)C(=O)N[C@@H](CCCNC(=N)N)C(=O)NCC(=O)N[C@@H](CCC(=O)O)C(=O)N[C@@H](CCC(N)=O)C(=O)N[C@@H](CC(C)C)C(=O)N[C@@H](C)C(=O)N[C@@H](CCC(N)=O)C(=O)N[C@@H](CCC(N)=O)C(=O)N[C@@H](C)C(=O)N[C@@H](Cc1ccc(O)cc1)C(=O)N[C@@H](CO)C(=O)N[C@@H](CC(N)=O)C(=O)N[C@@H](CCCNC(=N)N)C(=O)N[C@@H](CCCN)C(=O)N[C@@H](CC(C)C)C(=O)N[C@@H](CCCC)C(=O)N[C@@H](CCC(=O)O)C(=O)N[C@H](C(=O)N[C@H](C(N)=O)[C@@H](C)CC)[C@@H](C)CC [XV, [Nle^21,38, Gly^24, Tyr^32, Orn^36]-hCRF (10-41)] (H-LTFHLLREVLE[Nle]ARGEQLAQQAYSNR[Orn]L[Nle]EII-NH2)",inhibition of the secretion of ACTH and β-END-LI,[5],inhibits the secretion of ACTH and β-END-LI
"CCCC[C@H](NC(=O)[C@H](CC(C)C)NC(=O)[C@H](CC(C)C)NC(=O)[C@H](CCCNC(=N)N)NC(=O)[C@H](CC(N)=O)NC(=O)[C@H](CC(C)C)NC(=O)[C@H](C)NC(=O)[C@H](C)NC(=O)[C@H](CCC(N)=O)NC(=O)[C@H](CCC(=O)O)NC(=O)[C@H](C)NC(=O)[C@H](CCC(=O)O)NC(=O)[C@H](CCCCN)NC(=O)[C@H](CCC(=O)O)NC(=O)[C@H](C)NC(=O)[C@H](CCCCN)NC(=O)[C@H](CCC(=O)O)NC(=O)[C@H](CCSC)NC(=O)[C@H](CCC(=O)O)NC(=O)[C@H](CC(C)C)NC(=O)[C@H](CCSC)NC(=O)[C@H](CCC(=O)O)NC(=O)[C@H](CCCNC(=N)N)NC(=O)[C@H](CC(C)C)NC(=O)[C@H](CC(C)C)NC(=O)[C@H](CCC(=O)O)NC(=O)[C@@H](N)CC(C)C)C(=O)N[C@@H](CCC(=O)O)C(=O)N[C@@H](CCC(=O)O)C(=O)N[C@@H](C)C(N)=O [XXIII, [Leu^12, Glu^13,22, Lys^26, Nle^38]-AHC (12-41)] (H-LELLREMLEMEKAEKEAEQAALNRLL[Nle]EEA-NH2)",inhibition of the secretion of ACTH and β-END-LI,[5],inhibits the secretion of ACTH and β-END-LI
"[4FD-Phe^12, CML^14,15,19,27,33,37, CMA^22,32,41, Nle^38 ]-AHC(12-41) [XIX]",inhibition of the secretion of ACTH and β-END-LI,[5],inhibits the secretion of ACTH and β-END-LI
"CCCC[C@H](NC(=O)[C@H](CC(C)C)NC(=O)[C@H](CC(C)C)NC(=O)[C@H](CCCNC(=N)N)NC(=O)[C@H](CC(N)=O)NC(=O)[C@H](C)NC(=O)[C@H](C)NC(=O)[C@H](C)NC(=O)[C@H](CCC(N)=O)NC(=O)[C@H](CCC(=O)O)NC(=O)[C@H](C)NC(=O)[C@H](CCC(=O)O)NC(=O)[C@H](CCC(N)=O)NC(=O)[C@H](CCC(=O)O)NC(=O)[C@H](C)NC(=O)[C@H](CCCCN)NC(=O)[C@H](C)NC(=O)[C@H](CCSC)NC(=O)[C@H](CCC(=O)O)NC(=O)[C@H](CC(C)C)NC(=O)[C@H](CCSC)NC(=O)[C@H](CCC(=O)O)NC(=O)[C@H](CCCNC(=N)N)NC(=O)[C@H](CC(C)C)NC(=O)[C@H](CC(C)C)NC(=O)[C@H](CCC(=O)O)NC(=O)[C@H](N)CC(C)C)C(=O)N[C@@H](CCC(=O)O)C(=O)N[C@@H](CCC(=O)O)C(=O)N[C@@H](C)C(N)=O [XXV, [D-Leu^12, Glu^13, Ala^33, Nle^38]-AHC (12-41)] (H-[dL]ELLREMLEMAKAEQEAEQAAANRLL[Nle]EEA-NH2)",inhibition of the secretion of ACTH and β-END-LI,[5],inhibits the secretion of ACTH and β-END-LI
"CCCC[C@H](NC(=O)[C@H](Cc1ccc(O)cc1)NC(=O)[C@H](CCCCN)NC(=O)[C@H](CCCNC(=N)N)NC(=O)[C@H](CC(N)=O)NC(=O)[C@H](CC(C)C)NC(=O)CNC(=O)[C@H](C)NC(=O)[C@H](CCC(N)=O)NC(=O)[C@H](CCC(=O)O)NC(=O)[C@H](CCCNC(=N)N)NC(=O)[C@H](CCC(N)=O)NC(=O)[C@H](CC(N)=O)NC(=O)[C@H](CCC(=O)O)NC(=O)[C@H](CC(N)=O)NC(=O)[C@H](CCCNC(=N)N)NC(=O)[C@H](C)NC(=O)[C@H](CCSC)NC(=O)[C@H](CCC(=O)O)NC(=O)[C@@H](NC(=O)[C@H](CCSC)NC(=O)[C@H](CC(N)=O)NC(=O)[C@H](CCCNC(=N)N)NC(=O)[C@H](CC(C)C)NC(=O)[C@H](CC(C)C)NC(=O)[C@H](Cc1c[nH]cn1)NC(=O)[C@@H](N)Cc1ccccc1)[C@@H](C)CC)C(=O)N[C@@H](CC(=O)O)C(=O)N[C@@H](CCC(=O)O)C(=O)N[C@H](C(N)=O)C(C)C [VI, [Nle^38]-Carp Urotensin I(12-41)] (H-FHLLRNMIEMARNENQREQAGLNRKY[Nle]DEV-NH2)",inhibition of the secretion of ACTH and β-END-LI,[5],inhibits the secretion of ACTH and β-END-LI
"CCCC[C@H](NC(=O)[C@H](CC(C)C)NC(=O)[C@H](CC(C)C)NC(=O)[C@H](CCCNC(=N)N)NC(=O)[C@H](CC(N)=O)NC(=O)[C@H](CC(C)C)NC(=O)[C@H](C)NC(=O)[C@H](C)NC(=O)[C@H](CCC(N)=O)NC(=O)[C@H](CCC(=O)O)NC(=O)[C@H](C)NC(=O)[C@H](C)NC(=O)[C@H](CCC(N)=O)NC(=O)[C@H](CCC(=O)O)NC(=O)[C@H](C)NC(=O)[C@H](CCCCN)NC(=O)[C@H](C)NC(=O)[C@H](CC(C)C)NC(=O)[C@H](CCC(=O)O)NC(=O)[C@H](CC(C)C)NC(=O)[C@H](CCCC)NC(=O)[C@H](CCC(=O)O)NC(=O)[C@H](CCCNC(=N)N)NC(=O)[C@H](CC(C)C)NC(=O)[C@H](CC(C)C)NC(=O)[C@H](Cc1c[nH]cn1)NC(=O)[C@@H](N)Cc1ccccc1)C(=O)N[C@@H](CCC(=O)O)C(=O)N[C@@H](CCC(=O)O)C(=O)N[C@@H](C)C(N)=O [XXII, [Nle^18,38, Leu^21, Ala^27]-AHC (12-41)] (H-FHLLRE[Nle]LELAKAEQAAEQAALNRLL[Nle]EEA-NH2)",inhibition of the secretion of ACTH and β-END-LI,[5],inhibits the secretion of ACTH and β-END-LI
